Measurements as given in patent publication US20090130064A1, “DIFFERENTIATION OF STEM CELLS AND STABILIZATION OF PHENOTYPICAL PROPERTIES OF PRIMARY CELLS” (priority 2004, published 2009).

Columns and labels:
Format in all cases: cell-based
histone H4 = assay: Histone H4 acetylation (in vitro HDAC inhibiting activity) in primary rat hepatocytes, Western blot; details: 48 hours
From the text: (§1) Male outbred Sprague-Dawley rats (200-300 g, Iffa Credo, Brussels, Belgium) were kept under controlled environmental conditions (12-hr light-dark cycle) and fed a standard diet (Animafabo A04, water ad libitum). Hepatocytes were isolated by a two-step collagenase perfusion as described (De Smet et al. In ‘Methods in Molecular Biology, Vol. 107: Cytochrome P450 Protocols’, Philips I R and Shephard E A, eds., pp 295-301, Humana Press, Totowa, 1998). Cell liability was >90% as determined by trypan blue exclusion. Cells (0.4×10^5 cells/cm^2) were plated in MEM/M199 (3:1), containing BSA (1 mg/ml), bovine insulin (10 μg/ml), L-glutamine (2 mM), FBS (10% v/v) and antibiotics (7.3 IU/ml benzyl penicillin, 50 μg/ml streptomycin sulphate, 50 μg/ml kanamycin monosulphstep and 10 μg/ml sodium ampicillin). Four hours after plating, serum-containing medium was removed and fresh serum-free medium was added to the cultures. Culture medium was refreshed daily. EGF (50 ng/ml) was added 4 hours after plating. A 100 mM stock solution of 4-Me2N-BAVAH was prepared in ethanol.
Hepatocytes were treated for 48 hours with 4-Me2N-BAVAH (10, 25 or 50 μM) Histones were acid-extracted as described previously (Coussens et al. J Biol Chem 254:1716-1723, 1979). Extracted histones (20 μg per lane) were electrophoresed on a 15% SDS-PAGE as described (Waterborg J et al. Anal Biochem 162: 430-434, 1987) and blotted. Equal sample loading was confirmed with Ponceau S. Membranes were incubated at room temperature with primary antibody for 1 hour under gentle shaking and visualized by ECL. Band intensities were quantified by laser densitometry.

cyclin D1 = assay: Western blotting of cyclin D1 in primary rat hepatocytes; details: 50 μM; 72 hours
From the text: as §1, with “EGF (50 ng/ml) was added 4 hours after plating. A 100 mM stock solution of 4-Me2N-BAVAH was prepared in ethanol.” left out
Total cell extracts were prepared as described previously (Papeleu et al. J Hepatol 39: 374-382, 2003) and proteins (25 or 50 μg per lane) were separated electrophoretically by SDS-PAGE and electroblotted onto nitrocellulose membranes (Amersham Pharmacia Biotech, Buckinghamshire, UK). […] Proteins were detected using the ECL detection system (Amersham Pharmacia Biotech, Buckinghamshire, UK) according to the manufacturer's recommendations.

CYP 2B = assay: Western blot of CYP 2B in primary rat hepatocytes; details: 50 μM
From the text: as §1, with “(Animalabo” for “(Animafabo”, “viability” for “liability”, “monosulphate” for “monosulphstep”

rat BMSC = assay: Albumin ELISA, ALB secretion by rat BMSC-derived hepatocyte-like cells
Procedure: Then, cells were cultivated in the presence of liver-specific (LSP) cytokines either as a cocktail [basal medium+10 ng/ml FGF-4 (fibroblast growth factor type 4), 20 ng/ml HGF (hepatic growth factor) (all from R&D), 1×ITS (insulin, transferrin, selenious acid) and 0.05 μM Dex (dexamethasone) (all from Sigma)] or separately (until day 3: basal medium+10 ng/ml FGF-4; from days 3 to 6: basal medium+20 ng/ml HGF; from day 6 on: basal medium+20 ng/ml HGF+1×ITS and 0.05 μM Dex). […] The culture media were changed every three days.
(§2) ALB concentrations secreted into the media were analysed by competitive enzyme-linked immunosorbent assay (ELISA) as described (Koebe et al. Int J Artif Organs 17: 95-106, 1994). The ALB levels were normalized with respect to the media used.

CYP 1A1 = CYP 1A1 activity (ethoxyresorufin conversion) in cultured rat hepatocytes
From the text: (§3) Hepatocytes were isolated from male Sprague-Dawley rats by a two-step collagenase perfusion as described (De Smet et al. In ‘Methods in Molecular Biology, Vol. 107: Cytochrome P450 Protocols’, Philips IR and Shephard E A, eds., p.p 295-301, Humana Press, Totowa, 1998). Hepatocytes were cultivated in monolayer cultures with Willam's E Medium (WE) for 7 days. […] The maintenance of differentiation characteristics was studied after 2, 4, and 7 days (D2, D4, D7) of culture.
Phase I biotransformation was assessed by means of activity measurements of the microsomal cytochrome P450 (CYP) 1A1 and 2B1/2 iso-enzymes, using standard techniques known in the art (i.e., measuring conversion of ethoxyresorufin into hydroxyresorufin for CYP 1A1 and conversion of penthoxyresorufin to hydroxyresorufin for CYP 2B1/2) (Burke et al. Drug Metab Dispos 2:583-588, 1974). Microsomes were prepared from freshly isolated and hepatocytes cultured for 7 days according to Hales et al. (Biochem Pharmacol 26:555-556, 1977).

[1] = test system: glutathione S-transferase (GST); assay: Total cytosolic GST activity in cultured rat hepatocytes; details: TSA starting at 4 hours; day 4 and 7
From the text: as §3
In order to investigate Phase II biotransformation, total cytosolic glutathione S-transferase (GST) activity and activities of individual GSTA, GSTP, and GSTM iso-enzymes were measured using standard techniques known in the art. (i.e., measuring conjugation of reduced glutathione with 1-chloro-2,4-dinitrobenzene for total GST; measuring conjugation of reduced glutathione with 7-chloro-4-nitrobenzo-2-oxa-1,3-diazole for GSTA activity; measuring conjugation of reduced glutathione with ethacrynic acid for GSTP activity; and measuring conjugation of reduced glutathione with 1,2-dichloro-4-nitrobenzene for GSTM activity).

rat hepatocytes = assay: Albumin ELISA in primary rat hepatocyte monolayers (conditions C1, C2); details: 1 μM TSA; from D4 (C2) or D7 (C1) on
Procedure: In all conditions, the hepatocytes were cultivated as a monolayer configuration, and samples were taken at days 1, 4 and 7 (D1, D4, D7) of the cultivation time.
as §2

histone H4 acetylation, fold induction (histone H4; 10 μM) | histone H4 acetylation, fold induction (histone H4; 25 μM) | histone H4 hyperacetylation, fold induction (histone H4; 50 μM) | expression of CYP 2B (CYP 2B) | SMILES | cyclin D1 protein accumulation upon growth factor stimulation (cyclin D1) | cell death (rat BMSC; cocktail of LSP cytokines + TSA, from day 16 on) | increase of the ALB secretion from day 15 to 17 (rat BMSC; sequential cytokines + 1 μM TSA) | ALB secretion (rat BMSC; sequential cytokines + 1 μM TSA, from day 15 on) | activity of CYP 1A1 versus EtOH-treated controls (CYP 1A1; 1 μM TSA starting at 0 h or 4 h, day 4 and 7) | CYP 1A1/2 Activity (CYP 1A1; 7-day conventionally cultured adult rat hepatocytes, 1 μm TSA) | total GST activity versus EtOH treated controls [1] | albumin secretion (rat hepatocytes)
2.35±0.05 fold induction | 3.56±0.23 fold induction | 6.91±0.63 fold induction | Increased Expression | CN(C)c1ccc(C(=O)NCCCCC(=O)NO)cc1 [4-Me2N-BAVAH, 5-(4-dimethylaminobenzoyl)-aminovaleric acid hydroxamide] | completely failed to accumulate cyclin D1 protein | – | – | – | – | – | – | –
– | – | – | – | CC(C=CC(=O)NO)=CC(C)C(=O)c1ccc(N(C)C)cc1 (stereo not drawn) [TSA] | – | cell death had occurred | 2.5 fold | significantly upregulated | significantly higher | 4.3 ± 0.6 pmol resorufin/minute mg microsomal protein | significantly higher | improves albumin secretion
